From patent US20260083750A1, “SMALL MOLECULE INHIBITORS OF KRAS PROTEINS” (MERCK SHARP & DOHME LLC, priority 2022, published 2026)

What was measured:
[1] = target: T1, KRAS G12D (amino acids 1-169) (Homo sapiens, UniProt P01116, G12D); assay: SOS-catalyzed nucleotide exchange assay (Procedure B, BODIPY FL GDP displacement); format: biochemical; settings: Procedure B (Example Nos. 18, 21, 23, 33-34); 1 hour incubation, SOS1 + GMPPNP; read-out: KRAS G12D GNE IC50
T1 construct: made in house; host or cells: E. coli
Procedure: (§1) Procedure for SOS-Catalyzed Nucleotide Exchange Assay for KRAS-G12C/D/V (Procedure B)
(§2) Recombinant KRAS G12C (amino acids 1-169, SEQ ID NO:8), KRAS G12D (amino acids 1-169, SEQ ID NO:9), KRAS G12V (amino acids 1-169, SEQ ID NO:10) and SOS1 (amino acids 564-1049, SEQ ID NO:11) proteins were expressed in E. coli and purified by affinity chromatography. To prepare each BODIPY™ FL GDP-bound KRAS mutant protein, 50 μM KRAS mutant proteins were incubated with 0.5 mM BODIPY™ FL GDP (Invitrogen, G22360) in a loading buffer (20 mM Tris-HCl pH 7.5, 50 mM NaCl, 1 mM DTT and 2.5 mM EDTA) for 1 hour on ice. After the incubation, MgCl2 was added to a final concentration of 10 mM, followed by an incubation at room temperature for 30 minutes. The mixtures were allowed to pass through a NAP-5 column to remove free nucleotides and purified BODIPY™ FL GDP-bound KRAS G12C, G12D and G12V proteins were used for compound evaluation.
(§3) The inhibitory activity of compounds on recombinant KRAS mutants is measured by the displacement of the bound BODIPY™ GDP. Specifically, 2.5 nM of each BODIPY™ FL GDP-bound KRAS mutant complex was incubated with various concentrations of compound in a reaction buffer (20 mM Tris-HCl pH 7.5, 100 mM NaCl, 1 mM MgCl2, 2 mM DTT, 0.1% Tween 20) at 25° C. for 1 hour. After the incubation, recombinant SOS1 and GMPPNP (Jena Bioscience GmbH, NU-401) were added and incubated at room temperature for 30 minutes to proceed SOS1-dependent GDP-GTP exchange reaction on KRAS mutants. Displacement of BODIPY™ FL GDP by Guanosine-5′-[(β,γ)-imido]triphosphate, Tetralithium salt (GMPPNP) was measured by calculating the ratio of fluorescence intensities of BODIPY™ FL before and after the exchange reaction. […] Dose response curves were analyzed using a 4-parameter logistic model to calculate IC50 values.
(§4) For Example Nos. 1-17, 19-20, 22, 24-32, and 35-53 nucleotide exchange assays for KRAS G12D, G12C, G12V, and G13D were performed according to Procedure A. For Example Nos. 18, 21, 23, and 33-34, nucleotide exchange assays for KRAS G12D, G12C, and G12V were performed according to Procedure B.

[2] = target: T2, KRAS G12V (amino acids 1-169) (Homo sapiens, UniProt P01116, G12V); assay: as above; format: biochemical; settings: Procedure B (Example Nos. 18, 21, 23, 33-34); 1 hour incubation, SOS1 + GMPPNP; read-out: KRAS G12V GNE IC50
T2 construct: made in house; host or cells: E. coli
Procedure: as §1, §2, §3, §4

[3] = target: T3, KRAS G12C (amino acids 1-169) (Homo sapiens, UniProt P01116, G12C); assay: as above; format: biochemical; settings: Procedure B (Example Nos. 18, 21, 23, 33-34); 1 hour incubation, SOS1 + GMPPNP; read-out: KRAS G12C GNE IC50
T3 construct: made in house; host or cells: E. coli
Procedure: as §1, §2, §3, §4

[4] = tested on: SW620 cells (homozygous KRAS-G12V activating mutation); assay: Cellular phospho-ERK assay in G12V cell line; format: cell-based; settings: Homo sapiens, SW-620, 2 hours compound incubation, ratio of p-ERK vs. total ERK, read-out: SW620 pERK IC50
In short: (§5)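 Cells (10,000-15,000/well) were seeded overnight, then treated for 2 h at 37 °C with a 10-point 1:3 titration from 30 μM final. Lysates were assayed by AlphaLISA SureFire Ultra multiplex, with the p-ERK/total-ERK ratio as read-out; IC50 came from a 4-parameter logistic fit.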

NRAS = NRAS (Homo sapiens, UniProt P01111); assay: SOS-catalyzed nucleotide exchange assay (Procedure A, TR-FRET); format: biochemical; settings: 60 min preincubation, SOS + GTP, read-out: NRAS GNE IC50
In short: (§6)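 Biotinylated WT-sequence HRAS or NRAS (1.25 nM final) loaded with Bodipy-GDP plus Tb-streptavidin, preincubated 60 min with compound (10-point, 3-fold). Exchange started with human SOS (40 nM) and 3 mM GTP, 60 min at room temperature, pH 7.5 Mg buffer. TR-FRET 520/495 ratio normalised to DMSO and saturating inhibitor, four-parameter fit.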

HRAS = HRAS (Homo sapiens, UniProt P01112); assay: as above; format: biochemical; settings: 60 min preincubation, SOS + GTP, read-out: HRAS GNE IC50
In short: as §6

KRAS-G13D = target: T4, KRAS-G13D (Homo sapiens, UniProt P01116, G13D); assay: as above; format: biochemical; settings: 60 min preincubation, GTP, read-out: KRAS G13D GNE IC50
T4 construct: N-terminal biotin-acceptor peptide […]
In short: (§7)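 Preformed biotinylated RAS–Bodipy-GDP/Tb-streptavidin complex preincubated with compound 60 min at room temperature, then SOS plus GTP (3 mM final) added. Exchange times: G13D 30 min, G12C/D 60 min, G12V 90 min. Final RAS/SOS: G12C 3 nM/40 nM, G12D 1 nM/40 nM, G12V 1.25 nM/160 nM, G13D 1.25 nM/0 nM. TR-FRET 520/495 ratio, four-parameter fit.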

KRAS-G12D = target: T5, KRAS-G12D (Homo sapiens, UniProt P01116, G12D); assay: as above; format: biochemical; settings: 60 min preincubation, SOS + GTP, read-out: KRAS G12D GNE IC50
T5 construct: N-terminal biotin-acceptor peptide […]
In short: as §7

KRAS-G12V = target: T6, KRAS-G12V (Homo sapiens, UniProt P01116, G12V); assay: as above; format: biochemical; settings: 60 min preincubation, SOS + GTP, read-out: KRAS G12V GNE IC50
T6 construct: N-terminal biotin-acceptor peptide […]
In short: as §7

[5] = target: T7, KRAS-G12C (C51S/C80L/C118S) (Homo sapiens, UniProt P01116, C118S/C51S/C80L/G12C); assay: as above; format: biochemical; settings: 60 min preincubation, SOS + GTP, read-out: KRAS G12C GNE IC50
T7 construct: N-terminal biotin-acceptor peptide […]
In short: as §7

[6] = tested on: PANC08.13 cells (homozygous KRAS-G12D activating mutation); assay: Cellular phospho-ERK assay in G12D cell line; format: cell-based; settings: Homo sapiens, PANC-08-13, 2 hours compound incubation, ratio of p-ERK vs. total ERK, read-out: PANC 0813 pERK IC50
In short: as §5

T1 sequence (P01116 with tags, fused parts or gaps isoform P01116-2 G12D): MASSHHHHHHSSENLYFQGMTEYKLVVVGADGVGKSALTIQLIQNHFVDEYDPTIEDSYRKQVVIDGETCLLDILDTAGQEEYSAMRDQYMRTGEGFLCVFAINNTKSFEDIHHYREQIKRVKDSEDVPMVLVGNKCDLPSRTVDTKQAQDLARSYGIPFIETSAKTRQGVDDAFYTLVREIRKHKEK
T3 sequence (P01116 with tags, fused parts or gaps isoform P01116-2 G12C): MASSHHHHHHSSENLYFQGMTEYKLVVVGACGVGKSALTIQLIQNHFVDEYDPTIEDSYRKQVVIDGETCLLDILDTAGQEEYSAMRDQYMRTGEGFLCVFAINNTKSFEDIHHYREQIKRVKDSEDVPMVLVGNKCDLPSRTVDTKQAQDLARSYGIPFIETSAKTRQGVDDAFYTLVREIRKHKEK
T2 sequence (P01116 with tags, fused parts or gaps isoform P01116-2 G12V): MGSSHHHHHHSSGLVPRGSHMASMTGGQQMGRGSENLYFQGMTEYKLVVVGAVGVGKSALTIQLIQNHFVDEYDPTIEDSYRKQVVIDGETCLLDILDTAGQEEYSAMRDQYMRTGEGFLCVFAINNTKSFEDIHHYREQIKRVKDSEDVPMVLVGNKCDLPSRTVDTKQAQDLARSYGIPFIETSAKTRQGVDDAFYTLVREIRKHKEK
T6 sequence (P01116 with tags, fused parts or gaps isoform P01116-2 G12V): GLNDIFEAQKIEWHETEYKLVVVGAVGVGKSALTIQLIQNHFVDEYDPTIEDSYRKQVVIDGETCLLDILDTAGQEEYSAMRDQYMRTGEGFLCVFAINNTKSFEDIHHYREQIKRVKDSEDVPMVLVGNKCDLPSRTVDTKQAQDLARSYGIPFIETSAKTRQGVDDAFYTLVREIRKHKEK
T7 sequence (P01116 with tags, fused parts or gaps isoform P01116-2 G12C/C51S/C80L/C118S): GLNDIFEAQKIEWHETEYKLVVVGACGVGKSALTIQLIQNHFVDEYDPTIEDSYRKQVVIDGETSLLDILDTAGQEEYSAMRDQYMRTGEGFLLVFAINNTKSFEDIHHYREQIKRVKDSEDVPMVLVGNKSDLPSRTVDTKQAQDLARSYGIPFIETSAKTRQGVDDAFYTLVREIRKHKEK
Chain of HRAS (P01112 with tags, fused parts or gaps): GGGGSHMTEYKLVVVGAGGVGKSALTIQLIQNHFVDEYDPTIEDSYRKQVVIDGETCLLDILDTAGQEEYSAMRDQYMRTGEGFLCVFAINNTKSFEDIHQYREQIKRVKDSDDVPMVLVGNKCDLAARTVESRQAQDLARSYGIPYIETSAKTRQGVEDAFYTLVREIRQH
T5 sequence (P01116 with tags, fused parts or gaps isoform P01116-2 G12D): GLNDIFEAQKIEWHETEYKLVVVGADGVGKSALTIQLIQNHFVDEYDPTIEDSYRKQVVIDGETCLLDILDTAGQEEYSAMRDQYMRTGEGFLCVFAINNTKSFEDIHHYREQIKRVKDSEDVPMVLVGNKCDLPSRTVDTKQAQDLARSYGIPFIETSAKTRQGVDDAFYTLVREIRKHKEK
Chain of NRAS (P01111 with tags, fused parts or gaps): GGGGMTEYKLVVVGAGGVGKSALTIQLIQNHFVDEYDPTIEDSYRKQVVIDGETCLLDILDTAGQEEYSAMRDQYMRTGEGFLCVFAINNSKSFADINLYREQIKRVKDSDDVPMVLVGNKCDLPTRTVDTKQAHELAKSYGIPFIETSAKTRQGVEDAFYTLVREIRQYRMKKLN
T4 sequence (P01116 with tags, fused parts or gaps isoform P01116-2 G13D): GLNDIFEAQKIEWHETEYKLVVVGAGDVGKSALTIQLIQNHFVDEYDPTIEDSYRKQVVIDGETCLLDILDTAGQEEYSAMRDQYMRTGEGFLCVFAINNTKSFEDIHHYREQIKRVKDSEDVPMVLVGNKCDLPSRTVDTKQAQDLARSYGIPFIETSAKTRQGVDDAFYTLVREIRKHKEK

Structure (SMILES)	IC50 [1]	IC50 [2]	IC50 [3]	IC50 [4]	IC50 (NRAS)	IC50 (HRAS)	IC50 (KRAS-G13D)	IC50 (KRAS-G12D)	IC50 (KRAS-G12V)	IC50 [5]	IC50 [6]
N#Cc1c(N)sc2c(F)cc(F)c(-c3ncc4c(N5CCCOCC5)nc(OC[C@@]56CCCN5C[C@H](F)C6)nc4c3F)c12 [Ex. 23, 2-amino-5,7-difluoro-4-(8-fluoro-2-(((2R,7aS)-2-fluorotetrahydro-1H-pyrrolizin-7a(5H)-yl)methoxy)-4-(1,4-oxazepan-4-yl)pyrido[4,3-d]pyrimidin-7-yl)benzo[b]thiophene-3-carbonitrile]	140 nM	76.9 nM	33.4 nM	–	–	–	–	–	–	–	–
N#Cc1c(N)sc2c(F)ccc(-c3c(C(F)(F)F)cc4c(N5CCCOCC5)nc(OC[C@@]56CCCN5C[C@H](F)C6)nc4c3F)c12 [Ex. 34, 2-amino-7-fluoro-4-(8-fluoro-2-(((2R,7aS)-2-fluorotetrahydro-1H-pyrrolizin-7a(5H)-yl)methoxy)-4-(1,4-oxazepan-4-yl)-6-(trifluoromethyl)quinazolin-7-yl)benzo[b]thiophene-3-carbonitrile]	3.43 nM	1.67 nM	1.8 nM	–	–	–	–	–	–	–	–
N#Cc1c(N)sc2c(F)ccc(-c3c(Cl)cc4c(N5CCCOCC5)nc(OC[C@]5(CO)CC5(F)F)nc4c3F)c12 (single isomer, unassigned) [Ex. 33]	4880 nM	2230 nM	1020 nM	–	–	–	–	–	–	–	–
N#Cc1c(N)sc2c(F)ccc(-c3c(Cl)cc4c(N5CCCOCC5)nc(OC[C@@]56CCCN5C[C@H](F)C6)nc4c3F)c12 (single isomer, unassigned) [Ex. 18]	5.34 nM	2.91 nM	2.81 nM	–	–	–	–	–	–	–	–
N#Cc1c(N)sc2c(F)ccc(-c3c(Cl)cc4c(N5CCOCC(F)(F)C5)nc(OC[C@@]56CCCN5C[C@H](F)C6)nc4c3F)c12 [compound 12, 2-amino-4-(6-chloro-4-(6,6-difluoro-1,4-oxazepan-4-yl)-8-fluoro-2-(((2R,7aS)-2-fluorotetrahydro-1H-pyrrolizin-7a(5H)-yl)methoxy)quinazo-lin-7-yl)-7-fluorobenzo[b]thio-phene-3-carbonitrile]	–	–	–	32.9 nM	> 11100 nM	> 11100 nM	12.9 nM	34.2 nM	11.6 nM	19.5 nM	75.4 nM
C[C@H]1CCOCCN1c1nc(OC[C@@]23CCCN2C[C@H](F)C3)nc2c(F)c(-c3ccc(F)c4sc(N)c(C#N)c34)ncc12 [compound 21, 2-amino-7-fluoro-4-(8-fluoro-2-(((2R,7aS)-2-fluorotetrahydro-1H-pyrrolizin-7a(5H)-yl)methoxy)-4-((S)-5-methyl-1,4-oxazepan-4-yl)pyrido[4,3-d]pyrimidin-7-yl)benzo[b]thiophene-3-carbonitrile]	136 nM	63.6 nM	20.8 nM	–	–	–	–	–	–	–	–
C[C@H]1CCOCCN1c1nc(OC[C@@]23CCCN2C[C@H](F)C3)nc2c(F)c(-c3ccc(F)c4sc(N)c(C#N)c34)c(Cl)cc12 [Ex. 6, 2-amino-4-(6-chloro-8-fluoro-2-(((2R,7aS)-2-fluorotetrahydro-1H-pyrrolizin-7a(5H)-yl)methoxy)-4-((S)-5-methyl-1,4-oxazepan-4-yl)quinazolin-7-yl)-7-fluorobenzo[b]thio-phene-3-carbonitrile]	–	–	–	18.8 nM	9490 nM	2190 nM	2.4 nM	3.78 nM	3.15 nM	9.16 nM	33.9 nM
